The test system of this test is HCV genotype 1b replicon. In words: HCV replicon assay, cell ELISA with antibody to replicon-encoded NS3/4A (genotype 1b replicon). Format: cell-based, hepatitis C virus. The note with it: Hepatitis C virus, 96 h, read-out: Replicon 1b IC50 (nM), HCV genotype 1b replicon cells, 96 hours incubation, NS3/4A ELISA readout. The method in brief: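 Replicon-harbouring cells carrying neomycin phosphotransferase were incubated 96 h with a compound dilution series without G418. Replication was quantified indirectly by a cell ELISA detecting replicon-encoded NS3/4A. IC50 values were calculated relative to DMSO control with a four-parameter fit.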
For the molecule `CNC(=O)c1c(-c2ccc(F)cc2)oc2cc(N(C)S(C)(=O)=O)c(-c3cccc(-c4nc5cccnc5s4)c3)cc12` [Example 142, 2-(4-fluorophenyl)-N-methyl-6-[methyl (methylsulfonyl)amino]-5-[3-([1,3]thiazolo[5,4-b]pyridin-2-yl)phenyl]-1-benzofuran-3-carboxamide], the IC50 came out at 1 nM.
Then `CNC(=O)c1c(-c2ccc(F)cc2)oc2cc(N(C)S(C)(=O)=O)c(-c3cccc(-c4nc5ccc(C)cc5s4)c3)cc12` [Example 143, 2-(4-fluorophenyl)-N-methyl-5-[3-(6-methyl-1,3-benzothiazol-2-yl)phenyl]-6-[methyl(methylsulfonyl)amino]-1-benzofuran-3-carboxamide], with 8 nM.
Turning to `CNC(=O)c1c(-c2ccc(F)cc2)oc2cc(N(C)S(C)(=O)=O)c(-c3ccc(OC)c(-c4nc5ccccc5s4)c3)cc12` [Example 144, 5-[3-(1,3-benzothiazol-2-yl)-4-methoxyphenyl]-2-(4-fluorophenyl)-N-methyl-6-[methyl (methylsulfonyl)amino]-1-benzofuran-3-carboxamide], the IC50 was found to be 11 nM.
Consider `CNC(=O)c1c(-c2ccc(F)cc2)oc2cc(N(C)S(C)(=O)=O)c(-c3ccc(F)c(-c4nc5ccccc5s4)c3)cc12` [Example 145, 5-[3-(1,3-benzothiazol-2-yl)-4-fluorophenyl]-2-(4-fluorophenyl)-N-methyl-6-[methyl (methylsulfonyl)amino]-1-benzofuran-3-carboxamide], for which the IC50 came out at 6 nM.
Then `CNC(=O)c1c(-c2ccc(F)cc2)oc2cc(N(C)S(C)(=O)=O)c(-c3cccc(-c4nc5c(C)cccc5s4)c3)cc12` [Example 146, 2-(4-fluorophenyl)-N-methyl-5-[3-(4-methyl-1,3-benzothiazol-2-yl)phenyl]-6-[methyl (methylsulfonyl)amino]-1-benzofuran-3-carboxamide], with 15 nM; and `CNC(=O)c1c(-c2ccc(F)cc2)oc2cc(N(C)S(C)(=O)=O)c(-c3cccc(-c4nc5ccc(F)cc5s4)c3)cc12` [Example 147, 5-[3-(6-fluoro-1,3-benzothiazol-2-yl)phenyl]-2-(4-fluorophenyl)-N-methyl-6-[methyl (methylsulfonyl)amino]-1-benzofuran-3-carboxamide], with 7 nM; and `CNC(=O)c1c(-c2ccc(F)cc2)oc2cc(N(C)S(C)(=O)=O)c(-c3cccc(-c4nc5cc(Cl)ccc5s4)c3)cc12` [Example 148, 5-[3-(5-chloro-1,3-benzothiazol-2-yl)phenyl]-2-(4-fluorophenyl)-N-methyl-6-[methyl (methylsulfonyl)amino]-1-benzofuran-3-carboxamide], with 9 nM.
To `CNC(=O)c1c(-c2ccc(F)cc2)oc2cc(N(C)S(C)(=O)=O)c(-c3cccc(-c4nc5cc(C(F)(F)F)ccc5s4)c3)cc12` [Example 149, 2-(4-fluorophenyl)-N-methyl-6-[methyl (methylsulfonyl)amino]-5-{3-[5-(trifluoromethyl)-1,3-benzothiazol-2-yl]phenyl}-1-benzofuran-3-carboxamide] belongs 11 nM.
With `CNC(=O)c1c(-c2ccc(F)cc2)oc2cc(N(C)S(C)(=O)=O)c(-c3cccc(-c4nc5cc(F)ccc5[nH]4)c3)cc12` [Example 150, 5-[3-(5-fluoro-1H-benzimidazol-2-yl)phenyl]-2-(4-fluorophenyl)-N-methyl-6-[methyl(methylsulfonyl)amino]-1-benzofuran-3-carboxamide], the IC50 was 1 nM.
Then `CNC(=O)c1c(-c2ccc(F)cc2)oc2cc(N(C)S(C)(=O)=O)c(-c3cccc(-c4nc5ccccc5[nH]4)c3)cc12` [Example 151, 5-[3-(1H-benzimidazol-2-yl)phenyl]-2-(4-fluorophenyl)-N-methyl-6-[methyl (methylsulfonyl)amino]-1-benzofuran-3-carboxamide], with 5 nM; and `CNC(=O)c1c(-c2ccc(F)cc2)oc2cc(N(C)S(C)(=O)=O)c(-c3cccc(-c4nc5ccc(C#N)cc5[nH]4)c3)cc12` [Example 152, 5-[3-(6-cyano-1H-benzimidazol-2-yl)phenyl]-2-(4-fluorophenyl)-N-methyl-6-[methyl (methylsulfonyl)amino]-1-benzofuran-3-carboxamide], with 4 nM; and `CNC(=O)c1c(-c2ccc(F)cc2)oc2cc(N(C)S(C)(=O)=O)c(-c3cccc(-c4nc5ccc(Br)cc5[nH]4)c3)cc12` [Example 153, 5-[3-(6-bromo-1H-benzimidazol-2-yl)phenyl]-2-(4-fluorophenyl)-N-methyl-6-[methyl (methylsulfonyl)amino]-1-benzofuran-3-carboxamide], with 4 nM.
In the case of `CNC(=O)c1c(-c2ccc(F)cc2)oc2cc(N(C)S(C)(=O)=O)c(-c3cccc(-c4nc5ccc(C)cc5[nH]4)c3)cc12` [Example 154, 2-(4-fluorophenyl)-N-methyl-5-[3-(6-methyl-1H-benzimidazol-2-yl)phenyl]-6-[methyl (methylsulfonyl)amino]-1-benzofuran-3-carboxamide], the IC50 was determined as 4 nM.
For `CNC(=O)c1c(-c2ccc(F)cc2)oc2cc(N(C)S(C)(=O)=O)c(-c3cccc(-c4nc5ncccc5o4)c3)cc12` [Example 155, 2-(4-fluorophenyl)-N-methyl-6-(N-methylmethylsulfonamido)-5-(3-(oxazolo[4,5-b]pyridin-2-yl)phenyl)benzofuran-3-carboxamide], the IC50 is 1.1 nM.
Then `CNC(=O)c1c(-c2ccc(F)cc2)oc2cc(N(C)S(C)(=O)=O)c(-c3cccc(-c4nc5ccccc5o4)c3)cc12` [Example 156], with 6.9 nM.
To `CNC(=O)c1c(-c2ccc(F)cc2)oc2cc(N(C)S(C)(=O)=O)c(-c3cccc(-c4nc5ccccc5o4)c3OC)cc12` [Example 157] belongs 22.7 nM; to `CNC(=O)c1c(-c2ccc(F)cc2)oc2cc(N(C)S(C)(=O)=O)c(-c3cccc(-c4nc5cc(F)ccc5o4)c3)cc12` [Example 158], 4.8 nM; to `CNC(=O)c1c(-c2ccc(F)cc2)oc2cc(N(C)S(C)(=O)=O)c(-c3cccc(-c4nc5ccc(F)cc5o4)c3)cc12` [Example 159], 1.8 nM.
Take `CNC(=O)c1c(-c2ccc(F)cc2)oc2cc(N(C)S(C)(=O)=O)c(-c3cccc(-c4nc5cccc(F)c5o4)c3)cc12` [Example 160]: the IC50 was found to be 7 nM.
`CNC(=O)c1c(-c2ccc(F)cc2)oc2cc(N(C)S(C)(=O)=O)c(-c3cc(F)cc(-c4nc5cccc(F)c5o4)c3)cc12` [Example 161]: the IC50 worked out at 3.7 nM.
Then `CNC(=O)c1c(-c2ccc(F)cc2)oc2cc(N(C)S(C)(=O)=O)c(-c3cc(F)cc(-c4nc5cc(Cl)ccc5o4)c3)cc12` [Example 162], with 8.2 nM; and `CNC(=O)c1c(-c2ccc(F)cc2)oc2cc(N(C)S(C)(=O)=O)c(-c3cc(F)cc(-c4nc5ccc(Cl)cc5o4)c3)cc12` [Example 163], with 8.5 nM.
With `CNC(=O)c1c(-c2ccc(F)cc2)oc2cc(N(C)S(C)(=O)=O)c(-c3cc(F)cc(-c4nc5cccc(Cl)c5o4)c3)cc12` [Example 164], the IC50 was determined as 16.5 nM.
To `CNC(=O)c1c(-c2ccc(F)cc2)oc2cc(N(C)S(C)(=O)=O)c(-c3cc(F)cc(-c4nc5c(C)cccc5o4)c3)cc12` [Example 165] belongs 4.7 nM.
Consider `CNC(=O)c1c(-c2ccc(F)cc2)oc2cc(N(C)S(C)(=O)=O)c(-c3cc(F)cc(-c4nc5ccc(C)cc5o4)c3)cc12` [Example 166], for which the IC50 came to 4.4 nM.
To `CNC(=O)c1c(-c2ccc(F)cc2)oc2cc(N(C)S(C)(=O)=O)c(-c3cc(F)cc(-c4nc5cccc(C)c5o4)c3)cc12` [Example 167] belongs 10.4 nM; to `CNC(=O)c1c(-c2ccc(F)cc2)oc2cc(N(C)S(C)(=O)=O)c(-c3ccc(F)c(-c4nc5ccccc5o4)c3)cc12` [Example 168], 3.9 nM.
Regarding `CNC(=O)c1c(-c2ccc(F)cc2)oc2cc(N(C)S(C)(=O)=O)c(-c3cc(-c4nc5ccccc5o4)ccc3F)cc12` [Example 169], the IC50 stood at 6.4 nM.
As to `CNC(=O)c1c(-c2ccc(F)cc2)oc2cc(N(C)S(C)(=O)=O)c(-c3cccc(-c4nc5cc(Cl)ccc5o4)c3)cc12` [Example 170], the IC50 was determined as 5.2 nM.
Then `CNC(=O)c1c(-c2ccc(F)cc2)oc2cc(N(C)S(C)(=O)=O)c(-c3cccc(-c4nc5ccc(Cl)cc5o4)c3)cc12` [Example 171], with 6.8 nM; and `CNC(=O)c1c(-c2ccc(F)cc2)oc2cc(N(C)S(C)(=O)=O)c(-c3cccc(-c4nc5cccc(Cl)c5o4)c3)cc12` [Example 172], with 27 nM; and `CNC(=O)c1c(-c2ccc(F)cc2)oc2cc(N(C)S(C)(=O)=O)c(-c3cccc(-c4nc5c(C)cccc5o4)c3)cc12` [Example 173], with 5.6 nM.
As to `CNC(=O)c1c(-c2ccc(F)cc2)oc2cc(N(C)S(C)(=O)=O)c(-c3cccc(-c4nc5ccc(C)cc5o4)c3)cc12` [Example 174], the IC50 was 10.4 nM.
As to `CNC(=O)c1c(-c2ccc(F)cc2)oc2cc(N(C)S(C)(=O)=O)c(-c3cccc(-c4nc5cccc(C)c5o4)c3)cc12` [Example 175], the IC50 was 13.8 nM.
Then `CNC(=O)c1c(-c2ccc(F)cc2)oc2cc(N(C)S(C)(=O)=O)c(-c3cc(OC)cc(-c4nc5ccccc5o4)c3)cc12` [Example 176], with 3.9 nM; and `CNC(=O)c1c(-c2ccc(F)cc2)oc2cc(N(C)S(C)(=O)=O)c(-c3ccc(Cl)c(-c4nc5ccccc5o4)c3)cc12` [Example 177], with 7.4 nM; and `CNC(=O)c1c(-c2ccc(F)cc2)oc2cc(N(C)S(C)(=O)=O)c(-c3cc(Cl)cc(-c4nc5ccccc5o4)c3)cc12` [Example 178], with 7 nM.
For the molecule `CNC(=O)c1c(-c2ccc(F)cc2)oc2cc(N(C)S(C)(=O)=O)c(-c3ccc(OC(F)(F)F)c(-c4nc5ccccc5o4)c3)cc12` [Example 179], the IC50 came out at 7.2 nM.
Turning to `CNC(=O)c1c(-c2ccc(F)cc2)oc2cc(N(C)S(C)(=O)=O)c(-c3cc(-c4nc5ccccc5o4)c(OC)cc3F)cc12` [Example 180], the IC50 is 5 nM.

The values are drawn from patent US20120328569A1, “INHIBITORS OF HEPATITIS C VIRUS NS5B POLYMERASE” (priority 2010, published 2012).
